# Source: ChEMBL document CHEMBL1201862, “PubChem BioAssay data set” (2004)
#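 Assay format: 96-well plates, 48-hour exposure. GI50 = concentration required for 50% inhibition of growth.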 The source made the active and inactive calls. Rule as the data show it: active = GI50 up to about 1.1 µM and inactive = higher.
# Tests used:
# Assay in all cases: DTP human tumour cell line panel, 48 h
# SK-OV-3 = tested on: SK-OV-3
# SF-539 = tested on: SF-539
# SN12C = tested on: SN12C
# SK-MEL-5 = tested on: SK-MEL-5
# M14 = tested on: M14
# SF-295 = tested on: SF-295
# OVCAR-3 = tested on: OVCAR-3
# HT-29 = tested on: HT-29
# UACC-62 = tested on: UACC-62
# A549 = tested on: A549
# DU-145 = tested on: DU-145
# NCI/ADR-RES = tested on: NCI/ADR-RES
# HCT-15 = tested on: HCT-15
# 786-0 = tested on: 786-0
# UO-31 = tested on: UO-31
# UACC-257 = tested on: UACC-257
# SK-MEL-28 = tested on: SK-MEL-28
# MDA-MB-435 = tested on: MDA-MB-435
# SNB-75 = tested on: SNB-75
Structure (SMILES),GI50 (SK-OV-3),GI50 (SF-539),GI50 (SN12C),GI50 (SK-MEL-5),GI50 (M14),GI50 (SF-295),GI50 (OVCAR-3),GI50 (HT-29),GI50 (UACC-62),GI50 (A549),GI50 (DU-145),GI50 (NCI/ADR-RES),GI50 (HCT-15) [µM],GI50 (786-0),GI50 (UO-31),GI50 (UACC-257),GI50 (SK-MEL-28),GI50 (MDA-MB-435),GI50 (SNB-75)
CCOC(=O)[C@]12C(=C(c3ccccc3)O[C@H]3C=CCC[C@H]31)C(=O)C(=O)N2c1ccccc1,> 100 µM (inactive),> 100 µM (inactive),> 100 µM (inactive),93.8 µM (inactive),> 100 µM (inactive),98.4 µM (inactive),> 100 µM (inactive),60 µM (inactive),> 100 µM (inactive),> 100 µM (inactive),> 100 µM (inactive),17.1 µM (inactive),> 100,> 100 µM (inactive),> 100 µM (inactive),–,–,–,–
CN(C)CCNc1ccccn1,–,–,> 100 µM (inactive),> 100 µM (inactive),> 100 µM (inactive),> 100 µM (inactive),> 100 µM (inactive),> 100 µM (inactive),> 100 µM (inactive),> 100 µM (inactive),> 100 µM (inactive),> 100 µM (inactive),> 100,> 100 µM (inactive),> 100 µM (inactive),> 100 µM (inactive),> 100 µM (inactive),> 100 µM (inactive),–
C=CC(C)(C)n1cc(C2=C(O)C(=O)C(c3cn(C(C)(C)C=C)c4ccccc34)=C(OC(C)=O)C2=O)c2ccccc21,1.49 µM (inactive),–,0.456 µM (active),0.64 µM (active),1.25 µM (inactive),0.571 µM (active),1.04 µM (active),0.807 µM (active),0.571 µM (active),0.426 µM (active),1.04 µM (active),1.64 µM (inactive),0.375,1.47 µM (inactive),1.07 µM (active),0.64 µM (active),1.21 µM (inactive),0.513 µM (active),0.419 µM (active)
O=C(O)C#Cc1ccc([N+](=O)[O-])cc1,> 100 µM (inactive),> 100 µM (inactive),> 100 µM (inactive),> 100 µM (inactive),> 100 µM (inactive),> 100 µM (inactive),> 100 µM (inactive),> 100 µM (inactive),> 100 µM (inactive),> 100 µM (inactive),> 100 µM (inactive),> 100 µM (inactive),> 100,> 100 µM (inactive),> 100 µM (inactive),> 100 µM (inactive),> 100 µM (inactive),> 100 µM (inactive),–
CC(=O)c1ccc2c(c1)oc(=O)n2CCN1CCCCC1,> 100 µM (inactive),> 100 µM (inactive),> 100 µM (inactive),> 100 µM (inactive),> 100 µM (inactive),> 100 µM (inactive),> 100 µM (inactive),> 100 µM (inactive),> 100 µM (inactive),–,> 100 µM (inactive),> 100 µM (inactive),> 100,> 100 µM (inactive),–,> 100 µM (inactive),> 100 µM (inactive),> 100 µM (inactive),–
N#Cc1nc(-c2ccccn2)oc1N,> 100 µM (inactive),–,> 100 µM (inactive),> 100 µM (inactive),–,> 100 µM (inactive),> 100 µM (inactive),> 100 µM (inactive),> 100 µM (inactive),–,> 100 µM (inactive),–,> 100,> 100 µM (inactive),> 100 µM (inactive),> 100 µM (inactive),> 100 µM (inactive),> 100 µM (inactive),–
CC(C)CC1C(=O)NCCC(NC(=O)C(Cc2ccc(OC(C)(C)C)cc2)NC(=O)OC(C)(C)C)C(=O)NC(Cc2ccccc2)C(=O)NC(Cc2ccccc2)NC1=O (stereo unspecified),22 µM (inactive),23.2 µM (inactive),16.5 µM (inactive),31 µM (inactive),12.6 µM (inactive),5.75 µM (inactive),4.6 µM (inactive),3.67 µM (inactive),6.35 µM (inactive),–,59.4 µM (inactive),> 100 µM (inactive),> 100,1.71 µM (inactive),> 100 µM (inactive),12.1 µM (inactive),18.3 µM (inactive),2.82 µM (inactive),–
O=S(=O)(O)c1ccc(/N=N/c2ccc(/N=N/c3c(O)ccc4ccc(S(=O)(=O)O)cc34)cc2)cc1,> 100 µM (inactive),> 100 µM (inactive),> 100 µM (inactive),> 100 µM (inactive),> 100 µM (inactive),> 100 µM (inactive),> 100 µM (inactive),> 100 µM (inactive),> 100 µM (inactive),> 100 µM (inactive),> 100 µM (inactive),> 100 µM (inactive),> 100,> 100 µM (inactive),> 100 µM (inactive),> 100 µM (inactive),> 100 µM (inactive),> 100 µM (inactive),–
CN(C)c1ccc(/C=C2\C[C@H]3[C@@H]4CC=C5C[C@@H](O)CC[C@]5(C)[C@H]4CC[C@]3(C)[C@H]2O)cc1,31.2 µM (inactive),10.2 µM (inactive),12.8 µM (inactive),17.6 µM (inactive),18.2 µM (inactive),20 µM (inactive),22.5 µM (inactive),8.09 µM (inactive),13.7 µM (inactive),13.6 µM (inactive),34.1 µM (inactive),18.4 µM (inactive),15.7,18.1 µM (inactive),19.3 µM (inactive),18.2 µM (inactive),20.4 µM (inactive),–,29.2 µM (inactive)
O=C1C2=C(SCCS2)C(=O)c2c(Sc3ccc(Cl)cc3)c(Sc3ccc(Cl)cc3)c(Sc3ccc(Cl)cc3)c(Sc3ccc(Cl)cc3)c21,94.6 µM (inactive),–,> 100 µM (inactive),> 100 µM (inactive),33.8 µM (inactive),32.5 µM (inactive),> 100 µM (inactive),–,23.7 µM (inactive),> 100 µM (inactive),> 100 µM (inactive),> 100 µM (inactive),> 100,78.5 µM (inactive),> 100 µM (inactive),> 100 µM (inactive),–,> 100 µM (inactive),19.1 µM (inactive)
O=C(O)c1ccc(/C=N/N=C2c3ccccc3-c3ccccc32)cc1,74.3 µM (inactive),31 µM (inactive),31.5 µM (inactive),26.5 µM (inactive),67.1 µM (inactive),12.7 µM (inactive),19.6 µM (inactive),54.3 µM (inactive),61.8 µM (inactive),74 µM (inactive),> 100 µM (inactive),> 100 µM (inactive),57.1,> 100 µM (inactive),42 µM (inactive),67.5 µM (inactive),62.4 µM (inactive),73.5 µM (inactive),–
Cc1c(C#N)c(N)[nH]c(=S)c1C#N,–,> 100 µM (inactive),> 100 µM (inactive),> 100 µM (inactive),–,> 100 µM (inactive),> 100 µM (inactive),> 100 µM (inactive),> 100 µM (inactive),> 100 µM (inactive),> 100 µM (inactive),–,> 100,> 100 µM (inactive),> 100 µM (inactive),> 100 µM (inactive),> 100 µM (inactive),–,> 100 µM (inactive)
O=C1/C(=N\O)C2CCC1C2 (stereo unspecified),> 100 µM (inactive),> 100 µM (inactive),> 100 µM (inactive),> 100 µM (inactive),> 100 µM (inactive),> 100 µM (inactive),> 100 µM (inactive),> 100 µM (inactive),> 100 µM (inactive),> 100 µM (inactive),–,–,> 100,> 100 µM (inactive),> 100 µM (inactive),> 100 µM (inactive),> 100 µM (inactive),–,> 100 µM (inactive)
COC(=O)[C@H]1ON2O[C@H](OC3CCCC[C@@H]3c3ccccc3)C[C@@H]3CC[C@H]1[C@@]32C (stereo partly specified),> 100 µM (inactive),–,31.6 µM (inactive),56.4 µM (inactive),> 100 µM (inactive),> 100 µM (inactive),–,51.8 µM (inactive),> 100 µM (inactive),60.3 µM (inactive),> 100 µM (inactive),> 100 µM (inactive),89.9,> 100 µM (inactive),97.3 µM (inactive),> 100 µM (inactive),> 100 µM (inactive),> 100 µM (inactive),36.4 µM (inactive)
Nc1ccc2c(c1)S(=O)(=O)c1cc(N)ccc1-2,> 100 µM (inactive),> 100 µM (inactive),> 100 µM (inactive),> 100 µM (inactive),> 100 µM (inactive),> 100 µM (inactive),> 100 µM (inactive),> 100 µM (inactive),> 100 µM (inactive),> 100 µM (inactive),> 100 µM (inactive),> 100 µM (inactive),> 100,> 100 µM (inactive),> 100 µM (inactive),> 100 µM (inactive),–,> 100 µM (inactive),–
N#Cc1c(N)c2c(c(-c3ccccc3)c1-c1ccccc1)C(=O)N(NC(=S)Nc1ccccc1)C2=O,–,89.9 µM (inactive),> 100 µM (inactive),43.1 µM (inactive),> 100 µM (inactive),68.5 µM (inactive),64.4 µM (inactive),–,73.8 µM (inactive),64.1 µM (inactive),> 100 µM (inactive),59.3 µM (inactive),71.8,> 100 µM (inactive),34.1 µM (inactive),> 100 µM (inactive),47.2 µM (inactive),> 100 µM (inactive),65.2 µM (inactive)
